Our source for the mutagenic call values is PubChem BioAssay AID1259407 (Chemical Carcinogenesis Research Information System (CCRIS), 2018).

The data set deals with CCRIS mutagenicity, Ames/micronucleus/aberration tests. Nature of the data set: CCRIS mutagenicity studies.
Setting [1] is: Test System: AMES SALMONELLA TYPHIMURIUM, Strain/Indicator: TA98, Metabolic Activation: NONE, Method: STANDARD PLATE.
The mark [2] stands for this setting: Test System: AMES SALMONELLA TYPHIMURIUM, Strain/Indicator: TA98, Metabolic Activation: RAT, LIVER, S-9, AROCLOR 1254, Method: STANDARD PLATE.
Where [3] appears, read: Test System: AMES SALMONELLA TYPHIMURIUM, Strain/Indicator: TA100, Metabolic Activation: NONE, Method: STANDARD PLATE.
Where [4] appears, read: Test System: AMES SALMONELLA TYPHIMURIUM, Strain/Indicator: TA100, Metabolic Activation: RAT, LIVER, S-9, AROCLOR 1254, Method: STANDARD PLATE.
The mark [5] stands for this setting: Test System: AMES SALMONELLA TYPHIMURIUM, Strain/Indicator: TA102, Metabolic Activation: NONE, Method: STANDARD PLATE.
The mark [6] stands for this setting: Test System: AMES SALMONELLA TYPHIMURIUM, Strain/Indicator: TA1535, Metabolic Activation: NONE, Method: STANDARD PLATE.
Setting [7] is: Test System: AMES SALMONELLA TYPHIMURIUM, Strain/Indicator: TA1537, Metabolic Activation: NONE, Method: STANDARD PLATE.

SMILES strings stand for the structures. Active and inactive are the calls of the source. The rule behind the calls is not given here.

In the case of `CCOC(=O)CC(SP(=S)(OC)OC)C(=O)OCC` (stereo not drawn), the mutagenic call (End Point: IN VITRO CHROMOSOMAL ABERRATIONS, Test System: CHINESE HAMSTER OVARY CELLS, Metabolic Activation: NONE) was “inactive; negative”; the mutagenic call (End Point: IN VITRO CHROMOSOMAL ABERRATIONS, Test System: CHINESE HAMSTER OVARY CELLS, Metabolic Activation: RAT, LIVER, S-9, AROCLOR 1254) is “active; positive; precipitation occurred at all doses”; the mutagenic call (End Point: IN VITRO MICRONUCLEUS, Test System: HUMAN PERIPHERAL LYMPHOCYTES, Metabolic Activation: NONE, Method: DUAL COLOR PROBE) is “active; positive”; the mutagenic call (End Point: IN VIVO CHROMOSOMAL ABERRATIONS, Test System: BONE MARROW, Species: MOUSE, Strain/Sex: SWISS/MALE, Route: IP INJECTION) is “active; positive (structural changes: chromosome gaps, abnormal metaphases)”; the mutagenic call (End Point: IN VIVO CHROMOSOMAL ABERRATIONS, Test System: BONE MARROW, Species: MOUSE, Strain/Sex: SWISS/MALE, Route: ORAL (DIET)) was “active; positive (structural changes: gaps, breaks, deletions, tetraploidy)”; the mutagenic call (End Point: IN VIVO MICRONUCLEUS, Test System: BONE MARROW POLYCHROMATIC ERYTHROCYTES, Species: MOUSE, Strain/Sex: SWISS/MALE, FEMALE, Route: IP INJECTION) was “active; positive; higher dose effective”. The mutagenic call (End Point: IN VIVO MICRONUCLEUS, Test System: BONE MARROW POLYCHROMATIC ERYTHROCYTES, Species: MOUSE, Strain/Sex: SWISS/MALE, FEMALE, Route: ORAL) is “active; positive”; the mutagenic call (End Point: In vivo micronucleus, Test System: Peripheral blood polychromatic and normochromatic erythrocytes, Species: Rat, Strain/Sex: Wistar/Male, Route: Intraperitoneal) is “active; positive. positive response at highest dose”; the mutagenic call (End Point: In vivo micronucleus, Test System: Peripheral blood polychromatic erythrocytes, Species: Rat, Strain/Sex: Wistar/Male, Route: Intraperitoneal) was “inactive; negative. increases in ratio of polychromatic erythrocytes to normochromatic lym”; the mutagenic call (Test System: AMES SALMONELLA TYPHIMURIUM, Strain/Indicator: TA97A, Metabolic Activation: NONE, Method: STANDARD PLATE) was “inactive; negative”; the mutagenic call (Test System: AMES SALMONELLA TYPHIMURIUM, Strain/Indicator: TA97A, Metabolic Activation: RAT, CECAL CELL FREE EXTRACT, Method: STANDARD PLATE) is “inactive; negative”; the mutagenic call (Test System: AMES SALMONELLA TYPHIMURIUM, Strain/Indicator: TA97A, Metabolic Activation: RAT, LIVER, S-9, AROCLOR 1254, Method: STANDARD PLATE) is “inactive; negative”. Also, the mutagenic call was “inactive; negative” under setting [1]; “inactive; negative” (Test System: AMES SALMONELLA TYPHIMURIUM, Strain/Indicator: TA98, Metabolic Activation: RAT, CECAL CELL FREE EXTRACT, Method: STANDARD PLATE); “inactive; negative” under setting [2]; “inactive; negative” (Test System: AMES SALMONELLA TYPHIMURIUM, Strain/Indicator: TA98, Metabolic Activation: S-9, NADPH GENERATING SYSTEM, Method: STANDARD PLATE); “inactive; negative” under setting [3]; “inactive; negative” (Test System: AMES SALMONELLA TYPHIMURIUM, Strain/Indicator: TA100, Metabolic Activation: RAT, CECAL CELL FREE EXTRACT, Method: STANDARD PLATE). Besides, the mutagenic call under setting [4] was “inactive; negative”; the mutagenic call under setting [5] was “inactive; negative”; the mutagenic call (Test System: AMES SALMONELLA TYPHIMURIUM, Strain/Indicator: TA102, Metabolic Activation: S-9, NADPH GENERATING SYSTEM, Method: STANDARD PLATE) was “inactive; negative”; the mutagenic call under setting [6] was “inactive; negative”; the mutagenic call (Test System: AMES SALMONELLA TYPHIMURIUM, Strain/Indicator: TA1535, Metabolic Activation: S-9, NADPH GENERATING SYSTEM, Method: STANDARD PLATE) is “inactive; negative”; the mutagenic call under setting [7] was “inactive; negative”. The mutagenic call (Test System: AMES SALMONELLA TYPHIMURIUM, Strain/Indicator: TA1537, Metabolic Activation: S-9, NADPH GENERATING SYSTEM, Method: STANDARD PLATE) was “inactive; negative”.

As to `Cc1cc2cccc3ccc4c5ccccc5cc1c4c32`, where the note is “Test System: AMES SALMONELLA TYPHIMURIUM, Strain/Indicator: TA100, Metabolic Activation: RAT, NADPH-FORTIFIED HOMOGENIZED HEPATOCYTES, AROCLOR 1254, Method: PREINCUBATION”, the mutagenic call is “active; positive”.

`c1ccc(Cc2ccc(OCC3CO3)cc2)cc1` (stereo not drawn): the mutagenic call is “active; positive” under setting [3] and “active; positive” under setting [6].

With `CN1CCN(c2ccc3nc(CCCCCCc4ccc5nc(-c6ccc(N(CCCl)CCCl)cc6)[nH]c5c4)[nH]c3c2)CC1`, the mutagenic call is “inactive; negative” under setting [1], “inactive; negative” under setting [3] and “inactive; negative” under setting [5].

`CCCCOC(=O)CC(CC(=O)OCCCC)(OC(C)=O)C(=O)OCCCC`: the mutagenic call (Test System: AMES SALMONELLA TYPHIMURIUM, Strain/Indicator: TA98, Metabolic Activation: HAMSTER, LIVER, S-9, AROCLOR 1254, Method: STANDARD PLATE) is “inactive; negative”; the mutagenic call under setting [1] is “inactive; negative”; the mutagenic call under setting [2] is “inactive; negative”; the mutagenic call (Test System: AMES SALMONELLA TYPHIMURIUM, Strain/Indicator: TA100, Metabolic Activation: HAMSTER, LIVER, S-9, AROCLOR 1254, Method: STANDARD PLATE) is “inactive; negative”; the mutagenic call under setting [3] was “inactive; negative”; the mutagenic call under setting [4] is “inactive; negative”. Besides, the mutagenic call reads like this: (Test System: AMES SALMONELLA TYPHIMURIUM, Strain/Indicator: TA1535, Metabolic Activation: HAMSTER, LIVER, S-9, AROCLOR 1254, Method: STANDARD PLATE) “inactive; negative”; under setting [6], “inactive; negative”; (Test System: AMES SALMONELLA TYPHIMURIUM, Strain/Indicator: TA1535, Metabolic Activation: RAT, LIVER, S-9, AROCLOR 1254, Method: STANDARD PLATE) “inactive; negative”; (Test System: AMES SALMONELLA TYPHIMURIUM, Strain/Indicator: TA1537, Metabolic Activation: HAMSTER, LIVER, S-9, AROCLOR 1254, Method: STANDARD PLATE) “inactive; negative”; under setting [7], “inactive; negative”; (Test System: AMES SALMONELLA TYPHIMURIUM, Strain/Indicator: TA1537, Metabolic Activation: RAT, LIVER, S-9, AROCLOR 1254, Method: STANDARD PLATE) “inactive; negative”. Besides, the mutagenic call reads like this: (Test System: AMES SALMONELLA TYPHIMURIUM, Strain/Indicator: TA1538, Metabolic Activation: HAMSTER, LIVER, S-9, AROCLOR 1254, Method: STANDARD PLATE) “inactive; negative”; (Test System: AMES SALMONELLA TYPHIMURIUM, Strain/Indicator: TA1538, Metabolic Activation: NONE, Method: STANDARD PLATE) “inactive; negative”; (Test System: AMES SALMONELLA TYPHIMURIUM, Strain/Indicator: TA1538, Metabolic Activation: RAT, LIVER, S-9, AROCLOR 1254, Method: STANDARD PLATE) “inactive; negative”; (Test System: MOUSE LYMPHOMA, Strain/Indicator: L5178Y (TK+/TK-), Metabolic Activation: NONE, Method: SUSPENSION/PLATE) “inactive; negative. reevaluation of results: inconclusive”; (Test System: MOUSE LYMPHOMA, Strain/Indicator: L5178Y (TK+/TK-), Metabolic Activation: RAT, LIVER, S-9, AROCLOR 1254, Method: SUSPENSION/PLATE) “inactive; negative. reevaluation of results: negative”.
